How the values were obtained:
Type in all cases: in vivo
transplanted rice = test: Test Example 1: preemergence treatment under submerged conditions, effect on crop; conditions: dose 2.52 g/a
Procedure, shortened: (§1)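 Score 0–5 by mortality (5: ≥90%; 0: <5%), read 3 weeks post-application. Paddy-type cups: alluvial soil under 4 cm water, weeds seeded plus transplanted 2.5-leaf rice; diluted EC dosed onto water surface same day as sowing, g/a basis; greenhouse 25 to 30° C.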

bulrush [1] = test: Test Example 2: herbicidal effects during the vegetation period under submerged conditions; conditions: treatment during the vegetation period under submerged conditions; dose 2.52 g/a
Procedure, shortened: (§2)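 Barnyardgrass, bulrush and ducksalad were co-sown in alluvial soil flooded to 4 cm and grown in a greenhouse at 25 to 30° C. At the 1- or 2-leaf stage, water-diluted emulsifiable concentrates went onto the water surface at set doses (g/a). Herbicidal effect was scored three weeks later on a graded scale.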

barnyardgrass [2] = test: as above; conditions: treatment during the vegetation period under submerged conditions; dose 2.52 g/a
Procedure, shortened: as §2

ducksalad [3] = test: as above; conditions: treatment during the vegetation period under submerged conditions; dose 2.52 g/a
Procedure, shortened: as §2

large crabgrass [4] = test: Test Example 3: herbicidal effects in soil treatment; conditions: dose 3.2 g/a
Procedure, shortened: (§3)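 Seeds were sown in sterilized diluvial soil and covered with about 1.5 cm of soil. Compounds, formulated as emulsifiable concentrates and diluted with water, were sprayed evenly over the soil surface at set doses in g/a. Herbicidal effect was scored on a rating scale three weeks later.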

barnyardgrass [5] = test: as above; conditions: dose 3.2 g/a
Procedure, shortened: as §3

common lambsquater [6] = test: as above; conditions: dose 3.2 g/a
Procedure, shortened: as §3

Italian ryegrass [7] = test: as above; conditions: dose 3.2 g/a
Procedure, shortened: as §3

velvetleaf [8] = test: as above; conditions: dose 3.2 g/a
Procedure, shortened: as §3

water foxtail [9] = test: as above; conditions: dose 3.2 g/a
Procedure, shortened: as §3

redroot pigweed [10] = test: as above; conditions: dose 3.2 g/a
Procedure, shortened: as §3

wild oat [11] = test: as above; conditions: dose 3.2 g/a
Procedure, shortened: as §3

giant foxtail [12] = test: as above; conditions: dose 3.2 g/a
Procedure, shortened: as §3

common ragweed [13] = test: as above; conditions: dose 3.2 g/a
Procedure, shortened: as §3

posumbu knotweed [14] = test: as above; conditions: dose 3.2 g/a
Procedure, shortened: as §3

beadstraw [15] = test: as above; conditions: dose 3.2 g/a
Procedure, shortened: as §3

common chickweed [16] = test: as above; conditions: dose 3.2 g/a
Procedure, shortened: as §3

bulrush [17] = test: Test Example 1: herbicidal effects in preemergence treatment under submerged conditions; conditions: dose 2.52 g/a
Procedure, shortened: as §1

barnyardgrass [18] = test: as above; conditions: dose 2.52 g/a
Procedure, shortened: as §1

ducksalad [19] = test: as above; conditions: dose 2.52 g/a
Procedure, shortened: as §1

large crabgrass [20] = test: Test Example 4: herbicidal effect in foliage treatment; conditions: dose 3.2 g/a
Procedure, shortened: (§4)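 Sowing in sterilized diluvial soil, ~1.5 cm cover; growth 14 d, 25–30° C greenhouse; foliar spray of water-diluted EC at predetermined g/a; scoring 3 wk later on graded scale.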

barnyardgrass [21] = test: as above; conditions: dose 3.2 g/a
Procedure, shortened: as §4

common lambsquater [22] = test: as above; conditions: dose 3.2 g/a
Procedure, shortened: as §4

Italian ryegrass [23] = test: as above; conditions: dose 3.2 g/a
Procedure, shortened: as §4

velvetleaf [24] = test: as above; conditions: dose 3.2 g/a
Procedure, shortened: as §4

water foxtail [25] = test: as above; conditions: dose 3.2 g/a
Procedure, shortened: as §4

redroot pigweed [26] = test: as above; conditions: dose 3.2 g/a
Procedure, shortened: as §4

wild oat [27] = test: as above; conditions: dose 3.2 g/a
Procedure, shortened: as §4

giant foxtail [28] = test: as above; conditions: dose 3.2 g/a
Procedure, shortened: as §4

common ragweed [29] = test: as above; conditions: dose 3.2 g/a
Procedure, shortened: as §4

posumbu knotweed [30] = test: as above; conditions: dose 3.2 g/a
Procedure, shortened: as §4

beadstraw [31] = test: as above; conditions: dose 3.2 g/a
Procedure, shortened: as §4

common chickweed [32] = test: as above; conditions: dose 3.2 g/a
Procedure, shortened: as §4

[33] = three weeks after the application

Structure (SMILES): CC(C)COC(=O)N(c1ccccc1CN1COC(C)(C)C(F)C1=O)S(=O)(=O)C(F)(F)F (stereo not drawn) [II-36]
- a: transplanted rice, effect on crop (evaluation scale 0-5) (transplanted rice): 0 (mortality of less than 5% (almost ineffective))
- B: bulrush, herbicidal effect (evaluation scale 0-5) (bulrush [1]): 5 (mortality of 90% or above (nearly complete death))
- A: barnyardgrass, herbicidal effect (evaluation scale 0-5) (barnyardgrass [2]): 5 (mortality of 90% or above (nearly complete death))
- C: ducksalad, herbicidal effect (evaluation scale 0-5) (ducksalad [3]): 5 (mortality of 90% or above (nearly complete death))
- D: large crabgrass, herbicidal effect (evaluation scale 0-5) (large crabgrass [4]): 4 (mortality of at least 70% and less than 90%)
- A: barnyardgrass, herbicidal effect (evaluation scale 0-5) (barnyardgrass [5]): 5 (mortality of 90% or above (nearly complete death))
- L: common lambsquater, herbicidal effect (evaluation scale 0-5) (common lambsquater [6]): 0 (mortality of less than 5% (almost ineffective))
- H: Italian ryegrass, herbicidal effect (evaluation scale 0-5) (Italian ryegrass [7]): 0 (mortality of less than 5% (almost ineffective))
- I: velvetleaf, herbicidal effect (evaluation scale 0-5) (velvetleaf [8]): 3 (mortality of at least 40% and less than 70%)
- G: water foxtail, herbicidal effect (evaluation scale 0-5) (water foxtail [9]): 5 (mortality of 90% or above (nearly complete death))
- K: redroot pigweed, herbicidal effect (evaluation scale 0-5) (redroot pigweed [10]): 0 (mortality of less than 5% (almost ineffective))
- F: wild oat, herbicidal effect (evaluation scale 0-5) (wild oat [11]): 0 (mortality of less than 5% (almost ineffective))
- E: giant foxtail, herbicidal effect (evaluation scale 0-5) (giant foxtail [12]): 3 (mortality of at least 40% and less than 70%)
- J: common ragweed, herbicidal effect (evaluation scale 0-5) (common ragweed [13]): 4 (mortality of at least 70% and less than 90%)
- M: posumbu knotweed, herbicidal effect (evaluation scale 0-5) (posumbu knotweed [14]): 4 (mortality of at least 70% and less than 90%)
- O: beadstraw, herbicidal effect (evaluation scale 0-5) (beadstraw [15]): 4 (mortality of at least 70% and less than 90%)
- N: common chickweed, herbicidal effect (evaluation scale 0-5) (common chickweed [16]): 4 (mortality of at least 70% and less than 90%)
- B: bulrush, herbicidal effect (evaluation scale 0-5) (bulrush [17]): 5 (mortality of 90% or above (nearly complete death))
- A: barnyardgrass, herbicidal effect (evaluation scale 0-5) (barnyardgrass [18]): 5 (mortality of 90% or above (nearly complete death))
- C: ducksalad, herbicidal effect (evaluation scale 0-5) (ducksalad [19]): 5 (mortality of 90% or above (nearly complete death))
- D: large crabgrass, herbicidal effect (large crabgrass [20]; three weeks after application): 4 (mortality of at least 70% and less than 90%)
- A: barnyardgrass, herbicidal effect (barnyardgrass [21]; three weeks after application): 5 (mortality of 90% or above (nearly complete death))
- L: common lambsquater, herbicidal effect (common lambsquater [22]; three weeks after application): 1 (mortality of at least 5% and less than 20%)
- H: Italian ryegrass, herbicidal effect (Italian ryegrass [23]; three weeks after application): 2 (mortality of at least 20% and less than 40%)
- I: velvetleaf, herbicidal effect (velvetleaf [24]; three weeks after application): 2 (mortality of at least 20% and less than 40%)
- G: water foxtail, herbicidal effect (water foxtail [25]; three weeks after application): 4 (mortality of at least 70% and less than 90%)
- K: redroot pigweed, herbicidal effect (redroot pigweed [26]; three weeks after application): 0 (mortality of less than 5% (almost ineffective))
- F: wild oat, herbicidal effect (wild oat [27]; three weeks after application): 0 (mortality of less than 5% (almost ineffective))
- E: giant foxtail, herbicidal effect (giant foxtail [28]; three weeks after application): 3 (mortality of at least 40% and less than 70%)
- J: common ragweed, herbicidal effect (common ragweed [29]; three weeks after application): 3 (mortality of at least 40% and less than 70%)
- M: posumbu knotweed, herbicidal effect (posumbu knotweed [30]; three weeks after application): 2 (mortality of at least 20% and less than 40%)
- O: beadstraw, herbicidal effect (beadstraw [31]; three weeks after application): 3 (mortality of at least 40% and less than 70%)
- N: common chickweed, herbicidal effect (common chickweed [32]; three weeks after application): 3 (mortality of at least 40% and less than 70%)

Structure (SMILES): CN1COCN(Cc2ccccc2NS(=O)(=O)C(F)(F)F)C1=O [IV-1]
- a: transplanted rice, effect on crop (evaluation scale 0-5) (transplanted rice): 0 (mortality of less than 5% (almost ineffective))
- B: bulrush, herbicidal effect (evaluation scale 0-5) (bulrush [1]): 5 (mortality of 90% or above (nearly complete death))
- A: barnyardgrass, herbicidal effect (evaluation scale 0-5) (barnyardgrass [2]): 4 (mortality of at least 70% and less than 90%)
- C: ducksalad, herbicidal effect (evaluation scale 0-5) (ducksalad [3]): 4 (mortality of at least 70% and less than 90%)
- herbicidal effect, D: large crabgrass (large crabgrass [4]): 4 (mortality of at least 70% and less than 90%)
- herbicidal effect, A: barnyardgrass (barnyardgrass [5]): 5 (mortality of 90% or above (nearly complete death))
- herbicidal effect, L: common lambsquater (common lambsquater [6]): 0 (mortality of less than 5% (almost ineffective))
- herbicidal effect, H: Italian ryegrass (Italian ryegrass [7]): 0 (mortality of less than 5% (almost ineffective))
- herbicidal effect, I: velvetleaf (velvetleaf [8]): 3 (mortality of at least 40% and less than 70%)
- herbicidal effect, G: water foxtail (water foxtail [9]): 5 (mortality of 90% or above (nearly complete death))
- herbicidal effect, K: redroot pigweed (redroot pigweed [10]): 0 (mortality of less than 5% (almost ineffective))
- herbicidal effect, F: wild oat (wild oat [11]): 0 (mortality of less than 5% (almost ineffective))
- herbicidal effect, E: giant foxtail (giant foxtail [12]): 3 (mortality of at least 40% and less than 70%)
- herbicidal effect, J: common ragweed (common ragweed [13]): 2 (mortality of at least 20% and less than 40%)
- herbicidal effect, M: posumbu knotweed (posumbu knotweed [14]): 0 (mortality of less than 5% (almost ineffective))
- herbicidal effect, O: beadstraw (beadstraw [15]): 0 (mortality of less than 5% (almost ineffective))
- herbicidal effect, N: common chickweed (common chickweed [16]): 0 (mortality of less than 5% (almost ineffective))
- B: bulrush, herbicidal effect (evaluation scale 0-5) (bulrush [17]): 5 (mortality of 90% or above (nearly complete death))
- A: barnyardgrass, herbicidal effect (evaluation scale 0-5) (barnyardgrass [18]): 5 (mortality of 90% or above (nearly complete death))
- C: ducksalad, herbicidal effect (evaluation scale 0-5) (ducksalad [19]): 4 (mortality of at least 70% and less than 90%)
- D: large crabgrass, herbicidal effect (large crabgrass [20]; [33]): 4 (mortality of at least 70% and less than 90%)
- A: barnyardgrass, herbicidal effect (barnyardgrass [21]; [33]): 4 (mortality of at least 70% and less than 90%)
- L: common lambsquater, herbicidal effect (common lambsquater [22]; [33]): 0 (mortality of less than 5% (almost ineffective))
- H: Italian ryegrass, herbicidal effect (Italian ryegrass [23]; [33]): 3 (mortality of at least 40% and less than 70%)
- I: velvetleaf, herbicidal effect (velvetleaf [24]; [33]): 5 (mortality of 90% or above (nearly complete death))
- G: water foxtail, herbicidal effect (water foxtail [25]; [33]): 5 (mortality of 90% or above (nearly complete death))
- K: redroot pigweed, herbicidal effect (redroot pigweed [26]; [33]): 0 (mortality of less than 5% (almost ineffective))
- F: wild oat, herbicidal effect (wild oat [27]; [33]): 0 (mortality of less than 5% (almost ineffective))
- E: giant foxtail, herbicidal effect (giant foxtail [28]; [33]): 3 (mortality of at least 40% and less than 70%)
- J: common ragweed, herbicidal effect (common ragweed [29]; [33]): 1 (mortality of at least 5% and less than 20%)
- M: posumbu knotweed, herbicidal effect (posumbu knotweed [30]; [33]): 0 (mortality of less than 5% (almost ineffective))
- O: beadstraw, herbicidal effect (beadstraw [31]; [33]): 3 (mortality of at least 40% and less than 70%)
- N: common chickweed, herbicidal effect (common chickweed [32]; [33]): 1 (mortality of at least 5% and less than 20%)
